This note sets out measurements from patent US7833795B2, “Assessment of cardiovascular risk using isoprostane biomarkers and COX-2 selective inhibitors” (The Trustees of the University of Pennsylvania, priority 2004, dated 2010).

Assay type in all cases: in vivo, rat
For data set [1], the system named is Male Fisher 344 rats. As to the kind of experiment: Plasma MDA, TBA colorimetric assay with 3rd derivative spectroscopy. The following applies: plasma. How it is done:
(§1) Animals and treatment protocol: Male Fisher 344 rats (260-280 g) obtained from Charles River Laboratories (Raleigh, N.C.) were used in all experiments. The animals were housed three to a cage. Autoclaved hardwood bedding was used in solid-bottom polycarbonate cages with filter tops. Animal rooms were maintained at 20-25° C. with 35-70% relative humidity with alternating 12-hour light and dark cycles. The rats had free access to deionized, reverse-osmosis-treated water and received autoclaved NIH 31 rodent chow (Zeigler Bros., Gardners, Pa.) ad libitum. For all experiments, rats were fasted overnight and then administered intraperitoneal injections of carbon tetrachloride in canola oil. Control rats received an equal volume of canola oil. Fasting continued throughout the experiment. Rats were anesthetized with Nembutal (0.1 ml/100 g body weight) and 5 ml blood was removed from the dorsal aorta proximal to its bifurcation into the common iliac arteries.
(§2) Carbon tetrachloride (CCL4) treatment: Animals from each of the three dose groups (Control-canola oil, 120 mg/kg CCl4 i.p. and 1200 mg/kg CCl4 i.p.) were investigated at three time points (2, 7, and 16 hours after CCl4 injection). Indomethacin-pretreated rats were also investigated at the same three time points, and the meclofenamic acid-pretreated rats were investigated at one time point (7 hours). Each group consisted of five rats for each analysis, except the meclofenamic acid pretreatment group which consisted of six rats. Animal treatment, sample preparation, assessment of liver histology and serum enzyme activities are described elsewhere (Kadiiska et al., 2000, Free Radic. Biol. Med. 28: 838-845; Jackson, 1989, J. Pharmacol. Exp. Ther. 250: 9-21) and were carried out at NIEHS, Research Triangle Park, N.C.
(§3) Plasma sample preparation: Blood (5 ml) was drawn through single draw Vacutainer® needles (21 Gauge) into open Vacutainer® blood collection tubes containing heparin. The tubes were gently inverted 2-3 times for mixing and immediately placed on ice. Blood was centrifuged (2,000 rpm for 10 minutes at 4° C.) no more than 30 minutes after collection, and the plasma was collected, frozen on dry ice and stored at −70° C.
Two colorimetric-based assays, using third derivative spectroscopy, were also used to measure MDA in plasma. The TBA colorimetric assay is designed to measure free MDA and MDA-protein adducts (Schiff base), and therefore includes mild acid hydrolysis. The Bioxytech® LPO-586™ colorimetric assay is based upon the reaction of the chromogenic reagent N-methyl-2-phenylindole (NMPI) with MDA at 45° C. One molecule of free MDA combines with 2 molecules of the chromogenic agent to produce a stable chromophore with a maximal absorbance at 586 nm. In both assays, the concentration of MDA was determined with 3rd derivative spectroscopy. Both assays were developed by OXIS Research Inc., Portland, Oreg., and were performed at OXIS and at Loyola University Medical Center, Maywood, Ill.

Data set [2] concerns Male Fisher 344 rats. As to the kind of experiment: Plasma protein carbonyls. How it is done:
as §1, §2, §3
Several different assays for oxidation products of proteins were employed. The protein carbonyl content (Agarwal and Sohal, 1995, Mech. Ageing Develop. 85: 55-63), indicative of plasma protein oxidative damage, was measured according to the method of Levine et al. (Levine et al., 1994, Meth. Enzymol. 233: 346-357), based on derivatization of carbonyls with tritiated borohydride, as described in detail by Yan and Sohal (2000, Current Protocols Protein Science 144: 105-128). The isolated protein was counted in a Beckman scintillation counter and calculated using a standard curve. The measurements were performed at the University of Southern California, Los Angeles.

Data set [3] relates to Male Fisher 344 rats. As to the kind of experiment: Urinary free plus esterified 8-iso-PGF2α by immunoassay. To be noted: for Free plus esterified 8-iso PGF2a (by immunoassay): urine. How it is done:
as §1
Indomethacin pretreatment: The indomethacin regimen used has been previously shown to inhibit COX activity in rats by 90% (dose of 5 mg/kg s.c. 24 hours, 12 hours, and 2 hours prior to the injection of CCl4) (Jackson, 1989, J. Pharmacol. Exp. Ther. 250: 9-21). An additional booster dose was injected 8 hours after the last injection of CCl4 for the measurements performed 16 hours after treatment with CCl4.
Meclofenamic acid pretreatment: Meclofenamic acid was injected at a dose of 5 mg/kg i.p. 12 h and 2 h prior to the injection of CCl4.
as §2
Urine sample preparation: The day prior to treatment, both experimental and control animals were placed in stainless steel metabolic cages especially designed for urine collection. For Experimental Example 2, animals were placed in metabolic cages immediately after the last injection of indomethacin or meclofenamic acid. Urine was collected (in dark vials) from the animals during the following intervals: 2 to 7 hours and 7 to 16 hours after CCl4 or canola oil (controls) treatment. Urine samples from indomethacin-pretreated rats were collected from 2 to 7 hours and 7 to 16 hours after the injection of CCl4, whereas samples from meclofenamic-acid-pretreated rats were collected only from 2 to 7 hours after the injection. All urine samples were immediately frozen on dry ice and stored at −70° C.
Urinary 8-iso-PGF2α concentrations were measured by the competitive immunoassay procedure in which 8-iso-PGF2α conjugated to alkaline phosphatase competed with the test analyte for antibody specific for the isoprostane. The anti-8-iso-PGF2α antibody was captured by anti-Fc antibodies immobilized on a microtiter plate. The assay was developed by Assay Designs, Inc., Ann Arbor, Mich. and performed at OXIS Research, Portland, Oreg.
In an additional method not recited in Example 1, an immunoassay was used to measure the sum of free plus esterified 8-iso-PGF2α. The immunoassay used anti-8-iso-PGF2α antibody was developed by Assay Designs, Inc., Ann Arbor, Mich., and performed at Oxis Research, Portland, Oreg.

In data set [4] the test system is Male Fisher 344 rats. As to the kind of experiment: Plasma MDA, Bioxytech LPO-586 colorimetric assay. To be noted: both CCl4 doses. On the procedure:
as §1, with “arteries. […]” for “arteries.”
Two colorimetric-based assays, using third derivative spectroscopy, were also used to measure MDA in plasma. […] One molecule of free MDA combines with 2 molecules of the chromogenic agent to produce a stable chromophore with a maximal absorbance at 586 nm. In both assays, the concentration of MDA was determined with 3rd derivative spectroscopy. […]

Data set [5] has as its system Male Fisher 344 rats. As to the kind of experiment: Liver enzyme activities, histopathology and other clinical parameters after CCl4. The following applies: CCl4 120 and 1200 mg/kg; 2, 7, 16 h. How it is done: as §1, with “Rats were anesthetized with Nembutal (0.1 ml/100 g body weight) and 5 ml blood was removed from the dorsal aorta proximal to its bifurcation into the common iliac arteries.” left out
Serum enzyme activities of lactic acid dehydrogenase (LDH), alanine aminotransferase (ALT), alkaline phosphatase (ALP), aspartate aminotransferase (AST), sorbitol dehydrogenase (SDH), 5′-nucleotidase (5′-NT), serum concentration of total bile acids (TBA), and liver histopathology were performed, as described (Kadiiska et al., 2000, Free Radic. Biol. Med. 28:838-845). In addition, other clinical parameters such as serum albumin, total protein, total iron, total iron binding capacity, nitrite/nitrate, and urinary creatinine were determined, using standard techniques known to those in the art.

With `ClC(Cl)(Cl)Cl` [CCl4, Carbon tetrachloride], the “plasma MDA” value in the data set on Male Fisher 344 rats [1] (CCl4 120 mg/kg i.p., 2 h) worked out at 0.268 µM; in the data set on Male Fisher 344 rats [1] (CCl4 120 mg/kg i.p., 7 h), 0.209 µM; with Male Fisher 344 rats [1] (CCl4 120 mg/kg i.p., 16 h) it was 0.214 µM; with Male Fisher 344 rats [1] (CCl4 1200 mg/kg i.p., 2 h) it was 0.686 µM; with Male Fisher 344 rats [1] (CCl4 1200 mg/kg i.p., 7 h), 0.274 µM; with Male Fisher 344 rats [1] (CCl4 1200 mg/kg i.p., 16 h), 0.156 µM. Moreover, the “Protein carbonyls (by HPLC)” value in the data set with Male Fisher 344 rats [2] (CCl4 120 mg/kg i.p., 2 h) came out at 0.40 nmol/mg protein; with Male Fisher 344 rats [2] (CCl4 120 mg/kg i.p., 7 h), 0.42 nmol/mg protein; with Male Fisher 344 rats [2] (CCl4 120 mg/kg i.p., 16 h), 0.51 nmol/mg protein; with Male Fisher 344 rats [2] (CCl4 1200 mg/kg i.p., 2 h), 0.53 nmol/mg protein; in the data set on Male Fisher 344 rats [2] (CCl4 1200 mg/kg i.p., 7 h), 0.59 nmol/mg protein; with Male Fisher 344 rats [2] (CCl4 1200 mg/kg i.p., 16 h), 0.48 nmol/mg protein. Also, the “Free plus esterified 8-iso PGF2a (by immunoassay)” value in the data set on Male Fisher 344 rats [3] (CCl4 120 mg/kg i.p., 7 h) is on record as 25.7 ng/mgcreatinine; in the data set on Male Fisher 344 rats [3] (CCl4 120 mg/kg i.p., 16 h) it was 17.4 ng/mgcreatinine; in the data set with Male Fisher 344 rats [3] (CCl4 1200 mg/kg i.p., 7 h), 57.0 ng/mgcreatinine; in the data set on Male Fisher 344 rats [3] (CCl4 1200 mg/kg i.p., 16 h), 30.4 ng/mgcreatinine. For the same compound, the “increase of urinary 8-iso-PGF2α (immunoassay)” value is reported as 10 fold in the data set on Male Fisher 344 rats [3] (high dose CCl4, 7 h) and 6 fold in the data set on Male Fisher 344 rats [3] (high dose CCl4, 16 h). Moreover, the “plasma MDA with LPO-586 reagents, 3rd derivative analysis” value in the data set on Male Fisher 344 rats [4] is “significant increase was found only for the early time points”. Also, the “plasma iron concentrations and total iron binding capacity” value in the data set on Male Fisher 344 rats [5] is on record as “significantly increased only at the high dose at 16 hours”. In addition, the plasma nitrite/nitrate levels result in the data set with Male Fisher 344 rats [5] is reported as “significantly increased only at the high dose at all three time points”.
